Some results are limits rather than exact numbers.

Data set [1] concerns Strain E (mutations L100I and K103N in HIV reverse transcriptase). Briefly: cellular antiviral assay, HIV mutant strain E. To be noted: for pEC50 E: strain E, L100I and K103N; for EC50: Human immunodeficiency virus 1, read-out: pEC50 E (converted). It counts as cell-based. As to the method: (§1) Because of the increasing emergence of drug resistant HIV strains, the present compounds were tested for their potency against clinically isolated HIV strains harboring several mutations. These mutations are associated with resistance to reverse transcriptase inhibitors and result in viruses that show various degrees of phenotypic cross-resistance to the currently commercially available drugs such as for instance AZT and delavirdine.
(§2) The antiviral activity of the compound of the present invention has been evaluated in the presence of wild type HIV and HIV mutants bearing mutations at the reverse transcriptase gene. The activity of the compounds is evaluated using a cellular assay and the residual activity is expressed in pEC50 values. The columns IIIB and A-G in the table list the pEC50 values against various strains IIIB, A-G. • Strain IIIB is wild type HIV-LAI strain • Strain A contains mutation Y181C in HIV reverse transcriptase, • Strain B contains mutation K103N in HIV reverse transcriptase, • Strain C contains mutation L100I in HIV reverse transcriptase, • Strain D contains mutation Y188L in HIV reverse transcriptase, • Strain E contains mutations L100I and K103N in HIV reverse transcriptase, • Strain F contains mutations K103N and Y181C in HIV reverse transcriptase, and • Strain G contains mutations L100I, K103N, Y181C, V179I E138G L214F, V278V/I • and A327A/V in HIV reverse transcriptase.

In data set [2] the test system is Strain C (mutation L100I in HIV reverse transcriptase). Kind of data set: cellular antiviral assay, HIV mutant strain C. The class given is cell-based. To be noted: for pEC50 C: strain C, L100I; for EC50: Human immunodeficiency virus 1, read-out: pEC50 C (converted). How it is done: as §1, §2
Data set [3] deals with Strain G (mutations L100I, K103N, Y181C, V179I E138G L214F, V278V/I and A327A/V in HIV reverse transcriptase). Kind of data set: cellular antiviral assay, HIV mutant strain G. Particulars: for pEC50 G: strain G, L100I, K103N, Y181C, V179I E138G L214F, V278V/I and A327A/V; for EC50: Human immunodeficiency virus 1, read-out: pEC50 G (converted). It counts as cell-based. How it is done: as §1, §2

The subject of data set [4] is Strain B (mutation K103N in HIV reverse transcriptase). Kind of data set: cellular antiviral assay, HIV mutant strain B. It counts as cell-based. Particulars: for pEC50 B: strain B, K103N; for EC50: Human immunodeficiency virus 1, read-out: pEC50 B (converted). As to the method: as §1, §2
In data set [5] the test system is Strain D (mutation Y188L in HIV reverse transcriptase). Briefly: cellular antiviral assay, HIV mutant strain D. To be noted: for pEC50 D: strain D, Y188L; for EC50: Human immunodeficiency virus 1, read-out: pEC50 D (converted). The class given is cell-based. How it is done:
as §1, §2

In data set [6] the test system is Strain F (mutations K103N and Y181C in HIV reverse transcriptase). Briefly: cellular antiviral assay, HIV mutant strain F. It counts as cell-based. To be noted: for pEC50 F: strain F, K103N and Y181C; for EC50: Human immunodeficiency virus 1, read-out: pEC50 F (converted). How it is done: as §1, §2
Data set [7] has as its system Strain IIIB (wild type HIV-LAI strain). Briefly: cellular antiviral assay, wild type HIV. The class given is cell-based. Particulars: for pEC50 IIIB: strain IIIB, wild type HIV-LAI; for EC50: Human immunodeficiency virus 1, IIIB, read-out: pEC50 IIIB (converted). How it is done: as §1, §2
The subject of data set [8] is Strain A (mutation Y181C in HIV reverse transcriptase). Kind of data set: cellular antiviral assay, HIV mutant strain A. Particulars: for pEC50 A: strain A, Y181C; for EC50: Human immunodeficiency virus 1, read-out: pEC50 A (converted). It counts as cell-based. How it is done: as §1, §2

Take `Cc1cc(CCC#N)ccc1N1CCc2c(C)nc(Nc3ccc(C#N)cc3)nc21` [Compound 14]: in data set [1], the “pEC50 E” value was determined as 7.2. For the same compound, in data set [2], the “pEC50 C” value came to 8.4. The “pEC50 G” value in data set [3] was 5.5. Moreover, the “pEC50 B” value in data set [4] is 8.5. The “pEC50 D” value in data set [5] was found to be 7. Also, in [6], the “pEC50 F” value stood at 6.9. For the same compound, the “pEC50 IIIB” value in data set [7] stood at 8.9. Besides, the “pEC50 A” value in data set [8] is on record as 7.8.

Take `CCc1cc(CCC#N)cc(CC)c1N1CCc2c(C)nc(Nc3ccc(C#N)cc3)nc21` [Compound 16]: in [1], the “pEC50 E” value worked out at 8.1. Moreover, the “pEC50 C” value in data set [2] amounted to 8.6. Further, in [3], the “pEC50 G” value came out at 5.8. For the same compound, the “pEC50 B” value in data set [4] amounted to 8.2. The “pEC50 D” value in [5] was 7. Also, in data set [6], the “pEC50 F” value is recorded as 7.3. Besides, in data set [7], the “pEC50 IIIB” value came to 8.2. Also, the “pEC50 A” value in [8] stood at 7.7.

On to `CCc1cc(CCC#N)ccc1N1CCc2c(C)nc(Nc3ccc(C#N)cc3)nc21` [Compound 17], for which, in data set [1], the “pEC50 E” value is on record as 7.8. Also, the “pEC50 C” value in data set [2] is 8.6. Besides, the “pEC50 G” value in data set [3] was determined as 5.7. For the same compound, in data set [4], the “pEC50 B” value was 8.9. For the same compound, the “pEC50 D” value in [5] is 7.7. Besides, the “pEC50 F” value in [6] stood at 7.2. Moreover, the “pEC50 IIIB” value in [7] was found to be 9. For the same compound, in data set [8], the “pEC50 A” value is listed as 8.2.

A word on the melting point: it is the temperature, or range, at which the solid turns liquid. The compound `Cc1cc(/C=C/C#N)cc(C)c1-n1cnc2cnc(Nc3ccc(C#N)cc3)nc21` [Compound 20] gave a melting point greater than 250 °C. Besides, in data set [1], the EC50 is 0.00794 µM. Moreover, the EC50 in data set [2] is 0.000631 µM. Moreover, the EC50 in [3] was 2 µM. For the same compound, the EC50 in data set [4] is 0.000631 µM. Moreover, in data set [5], the EC50 is 0.0158 µM. The EC50 in data set [6] was 0.0398 µM. Also, in data set [7], the EC50 was 0.0002 µM. Besides, the EC50 in [8] was 0.00251 µM.

For `Cc1cc(/C=C/C#N)cc(C)c1-n1c(-c2ccccc2)nc2cnc(Nc3ccc(C#N)cc3)nc21` [Compound 23], the “pEC50 E” value in data set [1] was determined as 6.3. For the same compound, the “pEC50 C” value in [2] is listed as 7.5. Further, the “pEC50 G” value in [3] was 5.7. Besides, the “pEC50 B” value in data set [4] is recorded as 7.6. Besides, the “pEC50 D” value in [5] amounted to 7.7. For the same compound, in data set [6], the “pEC50 F” value is 6.4. In addition, in data set [7], the “pEC50 IIIB” value is 7.7. Further, the “pEC50 A” value in data set [8] was 7.1.

Take `N#C/C=C/c1cc(F)c(-n2cnc3cnc(Nc4ccc(C#N)cc4)nc32)c(Cl)c1` [Compound 24]: the EC50 in data set [1] was 0.00631 µM; in data set [2] it was 0.0002 µM; in [3] it was 2 µM; in data set [4], 0.0001 µM; in [5], 0.0126 µM; in [6], 0.0126 µM. Besides, the EC50 in data set [7] was 0.0001 µM; in data set [8], 0.00316 µM.

For `Cc1cc(/C=C/C#N)cc(C)c1-n1c(-c2ccccn2)nc2cnc(Nc3ccc(C#N)cc3)nc21` [Compound 25], the “pEC50 E” value in data set [1] is reported as 5.9. Moreover, in [2], the “pEC50 C” value was 7.2. For the same compound, in [3], the “pEC50 G” value is on record as 5.6. Besides, in [4], the “pEC50 B” value stood at 7.6. Moreover, the “pEC50 D” value in data set [5] was 7.5. For the same compound, the “pEC50 F” value in data set [6] is on record as 7.2. The “pEC50 IIIB” value in [7] is on record as 8.1. Moreover, in data set [8], the “pEC50 A” value came out at 7.5.

Turning to `Cc1cc(/C=C/C#N)cc(C)c1-n1c(N)nc2cnc(Nc3ccc(C#N)cc3)nc21` [Compound 26], the EC50 is 0.126 µM in data set [1]; 0.02 µM in data set [2]; 12.6 µM in data set [3]; 0.0126 µM in data set [4]; 0.0794 µM in data set [5]; 0.0631 µM in data set [6]. For the same compound, the EC50 in data set [7] is 0.00251 µM; in [8], 0.0251 µM.

On to `Cc1cc(/C=C/C#N)cc(C)c1-n1ccc2c(C)nc(Nc3ccc(C#N)cc3)nc21` [Compound 28], for which the “pEC50 E” value in data set [1] is 8.5. Also, the “pEC50 C” value in data set [2] came out at 8.6. The “pEC50 G” value in data set [3] is 5.7. In [4], the “pEC50 B” value was found to be 8.5. The “pEC50 D” value in data set [5] amounted to 7.7. The “pEC50 F” value in data set [6] stood at 7.8. The “pEC50 IIIB” value in [7] is 8.5. Also, the “pEC50 A” value in [8] is on record as 7.9.

As to `Cc1cc(/C=C/C#N)cc(C)c1-n1c(=S)[nH]c2cnc(Nc3ccc(C#N)cc3)nc21` [Compound 31], the melting point was greater than 250 °C. The EC50 in data set [1] is 0.398 µM. The EC50 in data set [2] was 0.00251 µM. The EC50 in data set [3] was 15.8 µM. The EC50 in data set [4] is 0.00251 µM. Also, the EC50 in data set [5] was 0.0794 µM. Also, the EC50 in data set [6] was 0.0398 µM. Moreover, the EC50 in [7] is 0.001 µM. Also, the EC50 in [8] is 0.0126 µM.

In turn, `CCOC(=O)c1cc(C)c(N2CCc3c(C)nc(Nc4ccc(C#N)cc4)nc32)c(C)c1` [Compound 33] had a melting point of 92 °C. Moreover, the EC50 in data set [1] is 3.98 µM. Moreover, the EC50 in [2] was 0.794 µM. Besides, in data set [3], the EC50 was 12.6 µM. Moreover, in data set [4], the EC50 is 0.126 µM. In addition, the EC50 in data set [5] was 0.631 µM. Besides, the EC50 in [6] was 3.16 µM. In addition, the EC50 in data set [7] was 0.0501 µM. Moreover, in [8], the EC50 was 2.51 µM.

`C/C(C#N)=C\c1cc(C)c(N2CCc3c(C)nc(Nc4ccc(C#N)cc4)nc32)c(C)c1` [Compound 34]: the melting point was 105 °C. In addition, in [1], the EC50 was 0.0158 µM. The EC50 in data set [2] is 0.00398 µM. For the same compound, the EC50 in data set [3] was 3.98 µM. Moreover, in data set [4], the EC50 is 0.00251 µM. The EC50 in data set [5] was 0.02 µM. The EC50 in data set [6] is 0.02 µM. Moreover, the EC50 in data set [7] is 0.002 µM. Further, the EC50 in [8] is 0.0158 µM.
